Experiments:
[1] = Mouse brain homogenate binding (BHB); assay type: in vitro ADME
Experimental: (§1) These assays were performed according to known methods as generally described in the following references: Conde-Ceide et al. ACS Med. Chem. Lett. 2015, 6, 716-720; Morris et al. J. Med. Chem. 2014, 57, 10192-10197; and Bubser et al. ACS Chem. Neurosci. 2014, 5, 920-942. Abbreviations which have been used in the descriptions of the following tables are; PPB is plasma protein binding; BHB is brain homogenate binding; and CLint is intrinsic clearance in hepatic microsomes.

CYP2D6 = CYP2D6 (Homo sapiens, UniProt P10635); assay: P450 inhibition 2D6; assay type: in vitro ADME
Experimental: as §1

Sequence of CYP2D6 (P10635 whole entry): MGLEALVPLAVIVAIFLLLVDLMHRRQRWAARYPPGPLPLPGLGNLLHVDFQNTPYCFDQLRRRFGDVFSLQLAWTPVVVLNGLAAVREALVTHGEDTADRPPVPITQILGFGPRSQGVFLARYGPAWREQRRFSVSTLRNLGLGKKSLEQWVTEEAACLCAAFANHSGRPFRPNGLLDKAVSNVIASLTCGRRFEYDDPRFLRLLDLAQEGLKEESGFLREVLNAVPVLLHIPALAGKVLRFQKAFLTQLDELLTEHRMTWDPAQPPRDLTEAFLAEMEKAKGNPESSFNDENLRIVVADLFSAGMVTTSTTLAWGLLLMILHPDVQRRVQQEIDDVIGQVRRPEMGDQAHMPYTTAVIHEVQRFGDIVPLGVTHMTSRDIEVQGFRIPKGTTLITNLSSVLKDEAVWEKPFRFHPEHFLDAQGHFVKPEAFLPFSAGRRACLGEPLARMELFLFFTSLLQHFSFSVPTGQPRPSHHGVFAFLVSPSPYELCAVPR

## CC(=O)N[C@H]1CC[C@@H](n2ncc(Cl)c2C(=O)Nc2ncc(C#Cc3ccccc3)cc2C)CC1 [Compound 12, 1-(cis-4-acetamidocyclohexyl)-4-chloro-N-(3-methyl-5-(phenylethynyl)pyridin-2-yl)-1H-pyrazole-5-carboxamide]
[1]
  Mouse BHB (% bound): 99.7 % bound
CYP2D6
  IC50: 4.5 µM

Source: patent US20240182445A1 (ONO PHARMACEUTICAL CO., LTD., priority 2019, published 2024)
